Test results taken from patent publication US12479844B2, “Ion channel modulators” (Praxis Precision Medicines, Inc., priority 2018, dated 2025).

Target: T1, human NaV1.6 (hNaV1.6) (Homo sapiens, UniProt Q9UQD0)
T1 construct: expressed in transfected cells; host or cells: HEK-293
Test: Modulation of late sodium current (INaL), PatchXpress high throughput electrophysiology
Type: cell-based
Settings: HEK293, HEK-293 cells expressing recombinant human NaV1.6, late current evoked by 300 nM ATX-II, read-out: NaV 1.6 Assay Data (percent inhibition of INaL at hNaV1.6)
Method: Functional characterization of exemplary compounds to modulate INaL expressed by the NaV1.6 voltage-gated sodium channel was accomplished using the PatchXpress™ high throughput electrophysiology platform (Molecular Devices, Sunnyvale, CA). HEK-293 cells expressing recombinant, human NaV1.6 (hNaV1.6) were grown in DMEM/high-glucose Dulbecco's modified, 10% FBS, 2 mM sodium pyruvate, 10 mM HEPES and 400 μg/mL G418. Cells were grown to 50%-80% confluency prior to harvesting. Trypsinized cells were washed, allowed to recover for 1 hour and then resuspended in extracellular recording solution at a concentration of 1×10^6 cells/ml. The onboard liquid handling facility of the PatchXpress was used for dispensing cells and applying test compounds. NaV late currents were evoked by the application of 300 nM ATX-II. INaL was evoked by depolarizing pulses to 0 mV for 200 ms from a non-inactivating holding potential (e.g., −120 mV) at a frequency of 0.1 Hz. INaL amplitude and stability were determined by analyzing the mean current amplitude over the final 20 ms of thetest pulse. Following steady state block with exemplary compounds (e.g., as described herein), a Na+ free solution containing an impermeant cation (e.g., Choline or NDMG) was added to confirm the identify of the sodium current. Percent steady-state inhibition of INaL was calculated as: [(INaL_compound)/(INaL_control)]*100, where INaL_compound and INaL_control represent INaL recorded in the presence or absence of compound, respectively.

T1 sequence (Q9UQD0 whole entry): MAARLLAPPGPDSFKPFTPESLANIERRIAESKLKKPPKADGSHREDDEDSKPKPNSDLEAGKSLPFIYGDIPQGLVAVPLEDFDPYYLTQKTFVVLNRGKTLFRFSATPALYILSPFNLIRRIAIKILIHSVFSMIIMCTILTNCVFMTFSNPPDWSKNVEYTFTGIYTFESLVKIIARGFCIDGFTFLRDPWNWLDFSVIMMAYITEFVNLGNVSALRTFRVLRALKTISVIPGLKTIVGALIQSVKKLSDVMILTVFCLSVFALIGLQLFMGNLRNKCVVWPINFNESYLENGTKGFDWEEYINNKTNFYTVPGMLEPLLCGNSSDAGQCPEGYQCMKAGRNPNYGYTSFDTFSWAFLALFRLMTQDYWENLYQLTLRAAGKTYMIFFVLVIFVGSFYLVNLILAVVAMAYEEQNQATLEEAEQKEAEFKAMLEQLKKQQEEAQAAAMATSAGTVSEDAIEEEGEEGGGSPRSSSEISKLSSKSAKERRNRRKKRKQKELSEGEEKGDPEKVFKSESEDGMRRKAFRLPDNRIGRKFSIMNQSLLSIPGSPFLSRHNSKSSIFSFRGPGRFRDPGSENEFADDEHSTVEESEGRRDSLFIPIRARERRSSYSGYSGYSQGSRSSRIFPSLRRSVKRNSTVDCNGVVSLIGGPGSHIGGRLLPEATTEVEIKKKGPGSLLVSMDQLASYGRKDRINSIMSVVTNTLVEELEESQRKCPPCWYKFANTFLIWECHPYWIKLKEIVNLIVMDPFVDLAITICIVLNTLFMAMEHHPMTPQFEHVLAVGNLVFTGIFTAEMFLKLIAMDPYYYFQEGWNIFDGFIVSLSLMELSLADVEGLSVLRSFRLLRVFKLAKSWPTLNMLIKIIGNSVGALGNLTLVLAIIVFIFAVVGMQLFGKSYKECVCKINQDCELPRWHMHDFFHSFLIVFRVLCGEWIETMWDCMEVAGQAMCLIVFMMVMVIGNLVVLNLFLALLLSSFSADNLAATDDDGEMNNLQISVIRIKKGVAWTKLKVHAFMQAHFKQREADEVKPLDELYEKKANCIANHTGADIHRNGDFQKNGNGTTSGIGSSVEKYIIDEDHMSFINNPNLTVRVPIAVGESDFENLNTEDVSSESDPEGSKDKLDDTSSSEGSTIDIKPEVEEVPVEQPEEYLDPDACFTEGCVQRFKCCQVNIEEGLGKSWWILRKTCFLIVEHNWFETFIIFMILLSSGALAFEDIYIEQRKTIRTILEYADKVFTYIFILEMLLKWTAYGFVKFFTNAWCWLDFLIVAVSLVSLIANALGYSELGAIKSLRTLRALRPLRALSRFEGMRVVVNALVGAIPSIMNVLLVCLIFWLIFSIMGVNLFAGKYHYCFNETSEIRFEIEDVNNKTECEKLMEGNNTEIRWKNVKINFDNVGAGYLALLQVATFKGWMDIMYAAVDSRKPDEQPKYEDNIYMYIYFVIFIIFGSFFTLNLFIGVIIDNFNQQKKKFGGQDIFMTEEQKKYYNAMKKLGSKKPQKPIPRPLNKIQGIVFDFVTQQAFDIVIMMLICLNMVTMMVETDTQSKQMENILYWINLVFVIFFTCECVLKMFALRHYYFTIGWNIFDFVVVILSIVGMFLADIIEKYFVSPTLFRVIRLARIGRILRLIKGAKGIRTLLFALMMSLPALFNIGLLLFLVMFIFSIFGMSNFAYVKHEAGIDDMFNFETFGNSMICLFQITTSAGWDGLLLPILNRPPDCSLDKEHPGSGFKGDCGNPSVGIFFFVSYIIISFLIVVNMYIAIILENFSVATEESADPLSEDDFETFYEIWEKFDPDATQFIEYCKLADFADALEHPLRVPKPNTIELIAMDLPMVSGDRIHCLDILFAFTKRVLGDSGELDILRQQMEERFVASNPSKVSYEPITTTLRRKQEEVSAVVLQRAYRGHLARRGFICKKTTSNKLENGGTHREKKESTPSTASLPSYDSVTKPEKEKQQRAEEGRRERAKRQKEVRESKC

`CCOC(F)(F)c1nnc2cnc(-c3ccc(O[C@@H](C)C(F)(F)F)cc3C)cn12` (single isomer, unassigned) [Compound 30] was tested, and the inhibition at 1 µM was 30 to 70%.
`COC(F)(F)c1nnc2cnc(-c3ccc(OCC(F)(F)F)cc3C)cn12` [Compound 21, 3-(difluoro(methoxy)methyl)-6-(2-methyl-4-(2,2,2-trifluoroethoxy)phenyl)-[1,2,4]triazolo[4,3-a]pyrazine] gave an inhibition at 1 µM of 30 to 70%.
`COC(F)(F)c1nnc2cnc(-c3ccc(OC(F)(F)F)c(C)c3)cn12` [Compound 11, 3-(difluoro(methoxy)methyl)-6-(3-methyl-4-(trifluoromethoxy)phenyl)-[1,2,4]triazolo[4,3-a]pyrazine] gave an inhibition at 1 µM of under 30%.
`CCOC(F)(F)c1nnc2cnc(-c3ccc(OC(F)(F)F)cc3COC3CC3)cn12` [Compound 36, 6-[2-(cyclopropoxymethyl)-4-(trifluoromethoxy)phenyl]-3-[ethoxy(difluoro)methyl]-[1,2,4]triazolo[4,3-a]pyrazine] showed an inhibition at 1 µM of 30 to 70%.
With `CCOC(F)(F)c1nnc2cnc(-c3ccc(OC(F)(F)F)c(C)c3)cn12` [Compound 9, 3-[ethoxy(difluoro)methyl]-6-[3-methyl-4-(trifluoromethoxy)phenyl]-[1,2,4]triazolo[4,3-a]pyrazine] the inhibition at 1 µM was 30 to 70%.
With `Cc1cc(OC(F)(F)F)ccc1-c1cn2c(COCC3CC3)nnc2cn1` [Compound 16, 3-(cyclopropylmethoxymethyl)-6-[2-methyl-4-(trifluoromethoxy)phenyl]-[1,2,4]triazolo[4,3-a]pyrazine] the inhibition at 1 µM was 30 to 70%.
`COC(F)(F)c1nnc2cnc(-c3ccc(OC(F)(F)F)cc3C3CC3)cn12` [Compound 33, 6-[2-cyclopropyl-4-(trifluoromethoxy)phenyl]-3-[difluoro(methoxy)methyl]-[1,2,4]triazolo[4,3-a]pyrazine] was tested, and the inhibition at 1 µM was over 70%.
`COC(F)(F)c1nnc2cnc(-c3ccc(OC(F)(F)F)cc3C)cn12` [Compound 2, 3-[difluoro(methoxy)methyl]-6-[2-methyl-4-(trifluoromethoxy)phenyl]-[1,2,4]triazolo[4,3-a]pyrazine] was tested, and the inhibition at 1 µM was over 70%.
